One assay deals with T1, mGluR5 receptor (Sus scrofa, UniProt I3LUI7).
T1 construct: 450 μg of protein from brain homogenate with 5 nM ^3[H]-MPEP; from tissue; host or cells: pig brain halves without medulla, cerebellum and pons
T1 sequence (I3LUI7 19-1212): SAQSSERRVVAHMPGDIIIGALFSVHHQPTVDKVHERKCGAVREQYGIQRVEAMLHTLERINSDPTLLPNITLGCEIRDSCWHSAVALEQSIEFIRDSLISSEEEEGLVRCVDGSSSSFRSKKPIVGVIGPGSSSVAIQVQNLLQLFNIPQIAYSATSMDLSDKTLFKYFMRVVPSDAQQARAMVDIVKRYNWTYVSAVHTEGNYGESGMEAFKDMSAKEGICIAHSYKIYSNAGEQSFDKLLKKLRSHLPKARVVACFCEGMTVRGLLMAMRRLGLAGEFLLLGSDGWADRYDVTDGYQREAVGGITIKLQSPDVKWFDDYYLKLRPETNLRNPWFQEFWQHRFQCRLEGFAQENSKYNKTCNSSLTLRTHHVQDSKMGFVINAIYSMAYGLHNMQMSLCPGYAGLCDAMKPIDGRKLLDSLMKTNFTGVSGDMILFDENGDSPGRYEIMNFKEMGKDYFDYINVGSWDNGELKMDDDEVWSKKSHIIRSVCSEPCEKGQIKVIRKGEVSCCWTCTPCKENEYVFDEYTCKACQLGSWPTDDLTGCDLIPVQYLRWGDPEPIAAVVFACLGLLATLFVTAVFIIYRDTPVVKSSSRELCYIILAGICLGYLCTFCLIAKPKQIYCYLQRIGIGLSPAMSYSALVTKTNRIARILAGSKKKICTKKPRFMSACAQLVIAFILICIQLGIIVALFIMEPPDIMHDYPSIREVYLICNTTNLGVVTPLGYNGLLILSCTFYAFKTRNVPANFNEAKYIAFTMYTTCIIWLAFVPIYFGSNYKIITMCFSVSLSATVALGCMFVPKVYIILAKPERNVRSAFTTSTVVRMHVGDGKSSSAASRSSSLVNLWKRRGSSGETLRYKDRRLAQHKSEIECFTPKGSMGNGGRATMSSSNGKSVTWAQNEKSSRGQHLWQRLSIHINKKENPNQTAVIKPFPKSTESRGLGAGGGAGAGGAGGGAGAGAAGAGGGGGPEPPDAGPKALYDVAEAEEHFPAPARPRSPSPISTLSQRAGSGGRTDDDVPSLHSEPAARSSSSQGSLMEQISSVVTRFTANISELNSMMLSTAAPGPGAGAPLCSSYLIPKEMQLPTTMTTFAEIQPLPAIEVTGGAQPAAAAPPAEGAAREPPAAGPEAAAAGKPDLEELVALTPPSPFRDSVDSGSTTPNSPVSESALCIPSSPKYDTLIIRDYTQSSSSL
The assay can be described thus: [3H]-MPEP mGluR5 receptor binding assay (pig brain homogenate). The following applies: 10 μM compound, 5 nM [3H]-MPEP. In outline:
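Radioligand displacement of 5 nM [3H]-MPEP from pig brain homogenate (450 μg protein; medulla, cerebellum and pons removed) in 20 mM Hepes pH 8.0. Compounds were tested at 10 μM, incubated 60 min at room temperature, then filtered and counted by scintillation. Non-specific binding was defined with 10 μM MPEP.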
As for `CC(C)(C)Nc1ncnc2ccc(-c3ccc(F)c(CN(C(=O)C4CCCCC4)C4CC4)c3)cc12` [Example 809, N-(5-(4-(tert-butylamino)quinazolin-6-yl)-2-fluorobenzyl)-N-cyclopropyl cyclohexane carboxamide], the “% Inhibition of mGluR5 Receptor (pig) [^3H]-MPEP Bond at 10 μM” value (from here on “% Inhibition of mGluR5 Receptor (pig)”) amounted to 48%.
Same read-out and setting: the figure for `CC(C)(C)Nc1ncnc2ccc(-c3ccc(F)c(CN(C4CC4)S(=O)(=O)c4cccs4)c3)cc12` [Example 810, N-(5-(4-(tert-butylamino)quinazolin-6-yl)-2-fluorobenzyl)-N-cyclopropyl thiophene-2-sulfonamide] is 45%; for `CC(C)(C)Nc1ncnc2ccc(-c3ccc(F)c(CN(C(=O)c4cccs4)C4CC4)c3)cc12` [Example 819, N-(5-(4-(tert-butylamino)quinazolin-6-yl)-2-fluorobenzyl)-N-cyclopropyl thiophene-2-carboxamide] it is 88%.
Take `CC(C)(C)Nc1ncnc2ccc(-c3ccc(F)c(CN(C(=O)c4cc(Cl)cc(Cl)c4)C4CC4)c3)cc12` [Example 820, N-(5-(4-(tert-butylamino)quinazolin-6-yl)-2-fluorobenzyl)-3,5-dichloro-N-cyclopropyl benzamide]: the “% Inhibition of mGluR5 Receptor (pig)” value is recorded as 48%.
The same measure, in the same setting: the figure for `CC(C)(C)Nc1ncnc2ccc(-c3ccc(F)c(CN(C(=O)CCc4ccccc4)C4CC4)c3)cc12` [Example 821, N-(5-(4-(tert-butylamino)quinazolin-6-yl)-2-fluorobenzyl)-N-cyclopropyl-3-phenyl propanamide] is 84%.
Still for that read-out and setting: the figure for `CC(C)S(=O)(=O)N(Cc1cc(-c2ccc3ncnc(NC(C)(C)C)c3c2)ccc1F)C1CC1` [Example 822, N-(5-(4-(tert-butylamino)quinazolin-6-yl)-2-fluorobenzyl)-N-cyclopropyl propane-2-sulfonamide] is 86%; for `CC(C)(C)Nc1ncnc2ccc(-c3ccc(F)c(CN(C(=O)c4ccccn4)C4CC4)c3)cc12` [Example 826, N-(5-(4-(tert-butylamino)quinazolin-6-yl)-2-fluorobenzyl)-N-cyclopropyl picolinamide] it is 98%.
Same read-out and setting: the figure for `CC(C)(C)Nc1ncnc2ccc(-c3ccc(F)c(CN(C4CC4)S(C)(=O)=O)c3)cc12` [Example 827, N-(5-(4-(tert-butylamino)quinazolin-6-yl)-2-fluorobenzyl)-N-cyclopropyl methane sulfonamide] is 87%.
In the case of `CC(C)(C)Nc1ncnc2ccc(-c3ccc(F)c(CN(C(=O)c4ccncc4)C4CC4)c3)cc12` [Example 832, N-(5-(4-(tert-butylamino)quinazolin-6-yl)-2-fluorobenzyl)-N-cyclopropyl isonicotinamide], the “% Inhibition of mGluR5 Receptor (pig)” value came out at 96%.
On the same count and under the same terms, the figure for `CC(C)(C)Nc1ncnc2ccc(-c3ccc(F)c(CN(C4CC4)S(=O)(=O)Cc4ccccc4)c3)cc12` [Example 833, N-(5-(4-(tert-butylamino)quinazolin-6-yl)-2-fluorobenzyl)-N-cyclopropyl-1-phenyl methane sulfonamide] is 43%.
Turning to `CC(C)(C)Nc1ncnc2ccc(-c3ccc(F)c(CN(C(=O)c4ccno4)C4CC4)c3)cc12` [Example 834, N-(5-(4-(tert-butylamino)quinazolin-6-yl)-2-fluorobenzyl)-N-cyclopropyl isoxazole-5-carboxamide], the “% Inhibition of mGluR5 Receptor (pig)” value was found to be 42%.
On the same count and under the same terms, the figure for `CC(C)(C)Nc1ncnc2ccc(-c3ccc(F)c(CN(C(=O)c4ccccc4)C4CC4)c3)cc12` [Example 837, N-(5-(4-(tert-butylamino)quinazolin-6-yl)-2-fluorobenzyl)-N-cyclopropyl benzamide] is 86%; for `CC(C)(C)Nc1ncnc2ccc(-c3ccc(F)c(CN(C(=O)c4cccnc4)C4CC4)c3)cc12` [Example 838, N-(5-(4-(tert-butylamino)quinazolin-6-yl)-2-fluorobenzyl)-N-cyclopropyl nicotinamide] it is 92%.

The assay is the same for the next values; noted with them: 10 μM compound, 5 nM [3H]-MPEP, read-out: % Inhibition of mGluR5 Receptor (pig) [^3H]-MPEP Bond at 10 μM.
Turning to `O=C(c1cccs1)N(Cc1cc(-c2ccc3ncnc(NC4CC4)c3c2)ccn1)C1CC1` [Example 811, N-cyclopropyl-N-((4-(4-(cyclopropylamino)quinazolin-6-yl)pyridin-2-yl)methyl)thiophene-2-carboxamide], the inhibition at 10 µM amounted to 71%.
Still for that read-out and setting: the figure for `O=S(=O)(c1cccc2cccnc12)N(Cc1cc(-c2ccc3ncnc(NC4CC4)c3c2)ccn1)C1CC1` [Example 812, N-cyclopropyl-N-((4-(4-(cyclopropylamino)quinazolin-6-yl)pyridin-2-yl)methyl)quinoline-8-sulfonamide] is 73%.
Same read-out and setting: the figure for `O=C(c1ccccc1)N(Cc1cc(-c2ccc3ncnc(NC4CC4)c3c2)ccn1)C1CC1` [Example 813, N-cyclopropyl-N-((4-(4-(cyclopropylamino)quinazolin-6-yl)pyridin-2-yl)methyl)benzamide] is 73%.
With `CC(C)(C)Nc1ncnc2ccc(-c3ccc(F)c(CN(C(=O)c4ccccc4C(F)(F)F)C4CC4)c3)cc12` [Example 814, N-(5-(4-(tert-butylamino)quinazolin-6-yl)-2-fluorobenzyl)-N-cyclopropyl-2-(trifluoromethyl)benzamide], the inhibition at 10 µM is 89%.
Same read-out and setting: the figure for `CC(C)(C)Nc1ncnc2ccc(-c3ccc(F)c(CN(C(=O)Cc4ccccc4)C4CC4)c3)cc12` [Example 815, N-(5-(4-(tert-butylamino)quinazolin-6-yl)-2-fluorobenzyl)-N-cyclopropyl-2-phenylacetamide] is 87%.
Still for that read-out and setting: the figure for `O=C(c1ccc(F)cc1F)N(Cc1cc(-c2ccc3ncnc(NC4CC4)c3c2)ccn1)C1CC1` [Example 817, N-cyclopropyl-N-((4-(4-(cyclopropylamino)quinazolin-6-yl)pyridin-2-yl)methyl)-2,4-difluorobenzamide] is 71%; for `CC(C)S(=O)(=O)N(Cc1cccc(-c2ccc3ncnc(NCCc4ccccc4)c3c2)c1)C1CC1` [Example 818, N-cyclopropyl-N-(3-(4-(phenethylamino)quinazolin-6-yl)benzyl)propane-2-sulfonamide] it is 34%; for `O=C(c1ccncc1)N(Cc1cc(-c2ccc3ncnc(NC4CC4)c3c2)ccn1)C1CC1` [Example 823, N-cyclopropyl-N-((4-(4-(cyclopropylamino)quinazolin-6-yl)pyridin-2-yl)methyl)isonicotinamide] it is 62%.
The same measure, in the same setting: the figure for `CC(C)S(=O)(=O)N(Cc1cccc(-c2cc(F)c3ncnc(NC4CC4)c3c2)c1)C1CC1` [Example 824, N-cyclopropyl-N-(3-(4-(cyclopropylamino)-8-fluoroquinazolin-6-yl)benzyl)propane-2-sulfonamide] is 71%.
Consider `Cc1nc(C(=O)N(Cc2cc(-c3ccc4ncnc(NC(C)(C)C)c4c3)ccc2F)C2CC2)cs1` [Example 825, N-(5-(4-(tert-butylamino)quinazolin-6-yl)-2-fluorobenzyl)-N-cyclopropyl-2-methylthiazole-4-carboxamide], for which the inhibition at 10 µM amounted to 97%.
On the same count and under the same terms, the figure for `CC(C)(C)C(=O)N(Cc1cc(-c2ccc3ncnc(NC4CC4)c3c2)ccn1)C1CC1` [Example 828, N-cyclopropyl-N-((4-(4-(cyclopropylamino)quinazolin-6-yl)pyridin-2-yl)methyl)pivalamide] is 74%; for `CCCCC(=O)N(Cc1cc(-c2ccc3ncnc(NC4CC4)c3c2)ccn1)C1CC1` [Example 829, N-cyclopropyl-N-((4-(4-(cyclopropylamino)quinazolin-6-yl)pyridin-2-yl)methyl)pentanamide] it is 45%.
`Cc1nc(C(=O)N(Cc2cccc(-c3cc(F)c4ncnc(NC5CC5)c4c3)c2)C2CC2)cs1` [Example 830, N-cyclopropyl-N-(3-(4-(cyclopropylamino)-8-fluoroquinazolin-6-yl)benzyl)-2-methylthiazole-4-carboxamide]: the inhibition at 10 µM amounted to 90%.
On the same count and under the same terms, the figure for `Cc1cc(C(=O)N(Cc2cc(-c3ccc4ncnc(NC(C)(C)C)c4c3)ccc2F)C2CC2)n(C)n1` [Example 831, N-(5-(4-(tert-butylamino)quinazolin-6-yl)-2-fluorobenzyl)-N-cyclopropyl-1,3-dimethyl-1H-pyrazole-5-carboxamide] is 84%; for `O=C(C1CCCCC1)N(Cc1cc(-c2ccc3ncnc(NC4CC4)c3c2)ccn1)C1CC1` [Example 835, N-cyclopropyl-N-((4-(4-(cyclopropylamino)quinazolin-6-yl)pyridin-2-yl)methyl)cyclohexane carboxamide] it is 58%.
The same measure, in the same setting: the figure for `CC(C)(C)Nc1ncnc2ccc(-c3ccc(F)c(CN(C(=O)c4c(F)c(F)c(F)c(F)c4F)C4CC4)c3)cc12` [Example 840, N-(5-(4-(tert-butylamino)quinazolin-6-yl)-2-fluorobenzyl)-N-cyclopropyl-2,3,4,5,6-pentafluorobenzamide] is 74%; for `O=C(Cc1ccccc1)N(Cc1cc(-c2ccc3ncnc(NC4CC4)c3c2)ccn1)C1CC1` [Example 841, N-cyclopropyl-N-((4-(4-(cyclopropylamino)quinazolin-6-yl)pyridin-2-yl)methyl)-2-phenylacetamide] it is 36%.
Still for that read-out and setting: the figure for `COc1ccc(C(=O)N(Cc2cc(-c3ccc4ncnc(NC(C)(C)C)c4c3)ccc2F)C2CC2)cc1OC` [Example 843, N-(5-(4-(tert-butylamino)quinazolin-6-yl)-2-fluorobenzyl)-N-cyclopropyl-3,4-dimethoxybenzamide] is 71%.

Broadly, the inhibition is the relative decrease from the control value, in per cent.

The record behind these values is patent publication US20090069320A1, “Substituted 4-Amino-Quinazoline Compounds with Metabotropic Glutamate Receptor Regulating Activity and Uses Thereof” (Gruenenthal GmbH, priority 2006, published 2009).
